Format in all cases: biochemical
For one assay, the target named is EphA2 (Homo sapiens, UniProt P29317). Kind of assay: Eph receptor kinase activity assay (radiometric), EphA2. The following applies: for remaining activity at 0.01 µM: 10 nM compound, read-out: EphA2 % act 10 nM; for remaining activity at 0.1 µM: 100 nM compound, read-out: EphA2 % act 100 nM; for remaining activity at 0.3 µM: 300 nM compound, read-out: EphA2 % act 300 nM.

For the next assay, the target named is T1, EphB3 (Homo sapiens, UniProt P54753).
T1 sequence (P54753 34-998): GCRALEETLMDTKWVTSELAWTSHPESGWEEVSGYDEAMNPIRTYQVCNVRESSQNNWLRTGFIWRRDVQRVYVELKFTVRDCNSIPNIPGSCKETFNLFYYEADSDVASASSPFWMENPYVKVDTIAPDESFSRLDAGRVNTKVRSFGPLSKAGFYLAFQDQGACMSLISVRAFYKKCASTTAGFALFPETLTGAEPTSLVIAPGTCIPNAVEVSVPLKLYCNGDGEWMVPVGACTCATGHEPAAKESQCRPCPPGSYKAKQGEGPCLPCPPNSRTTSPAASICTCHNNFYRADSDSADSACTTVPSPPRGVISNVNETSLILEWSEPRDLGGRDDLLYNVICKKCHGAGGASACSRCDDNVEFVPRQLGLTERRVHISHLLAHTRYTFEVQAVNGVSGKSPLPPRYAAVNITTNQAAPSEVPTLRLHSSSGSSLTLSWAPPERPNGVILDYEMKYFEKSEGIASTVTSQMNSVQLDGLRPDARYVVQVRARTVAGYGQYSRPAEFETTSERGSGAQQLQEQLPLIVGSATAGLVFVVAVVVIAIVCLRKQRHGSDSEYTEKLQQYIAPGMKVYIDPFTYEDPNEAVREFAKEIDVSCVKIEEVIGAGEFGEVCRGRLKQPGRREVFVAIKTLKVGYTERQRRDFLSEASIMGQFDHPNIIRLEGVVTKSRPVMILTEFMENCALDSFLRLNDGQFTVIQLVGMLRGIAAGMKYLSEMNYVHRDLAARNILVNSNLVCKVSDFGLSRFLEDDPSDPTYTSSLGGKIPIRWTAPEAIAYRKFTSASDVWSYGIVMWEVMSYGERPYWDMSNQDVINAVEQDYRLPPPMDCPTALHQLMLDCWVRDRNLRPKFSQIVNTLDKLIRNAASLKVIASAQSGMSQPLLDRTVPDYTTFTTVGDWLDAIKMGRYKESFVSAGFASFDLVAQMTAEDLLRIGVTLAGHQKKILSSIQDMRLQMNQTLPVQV
Kind of assay: EphB3 radiometric kinase activity assay (33P ATP filter binding). The following applies: for remaining activity at 0.01 µM: 10 nM compound, read-out: EphB3 % act 10 nM; for remaining activity at 0.1 µM: 100 nM compound, read-out: EphB3 % act 100 nM; for remaining activity at 0.3 µM: 300 nM compound, read-out: EphB3 % act 300 nM. The procedure: EphB3 radiometric kinase activity assay. To study the EphB3 kinase activity, a radioactive filter binding assay using 33P ATP was performed as described at the […] International Centre for Kinase profiling. […] The mix was harvested onto P81 filter plates and counts were read on a Topcount NXT.

The next assay concerns the target T2, EphB4 (Homo sapiens, UniProt P54760).
T2 sequence (P54760 16-987): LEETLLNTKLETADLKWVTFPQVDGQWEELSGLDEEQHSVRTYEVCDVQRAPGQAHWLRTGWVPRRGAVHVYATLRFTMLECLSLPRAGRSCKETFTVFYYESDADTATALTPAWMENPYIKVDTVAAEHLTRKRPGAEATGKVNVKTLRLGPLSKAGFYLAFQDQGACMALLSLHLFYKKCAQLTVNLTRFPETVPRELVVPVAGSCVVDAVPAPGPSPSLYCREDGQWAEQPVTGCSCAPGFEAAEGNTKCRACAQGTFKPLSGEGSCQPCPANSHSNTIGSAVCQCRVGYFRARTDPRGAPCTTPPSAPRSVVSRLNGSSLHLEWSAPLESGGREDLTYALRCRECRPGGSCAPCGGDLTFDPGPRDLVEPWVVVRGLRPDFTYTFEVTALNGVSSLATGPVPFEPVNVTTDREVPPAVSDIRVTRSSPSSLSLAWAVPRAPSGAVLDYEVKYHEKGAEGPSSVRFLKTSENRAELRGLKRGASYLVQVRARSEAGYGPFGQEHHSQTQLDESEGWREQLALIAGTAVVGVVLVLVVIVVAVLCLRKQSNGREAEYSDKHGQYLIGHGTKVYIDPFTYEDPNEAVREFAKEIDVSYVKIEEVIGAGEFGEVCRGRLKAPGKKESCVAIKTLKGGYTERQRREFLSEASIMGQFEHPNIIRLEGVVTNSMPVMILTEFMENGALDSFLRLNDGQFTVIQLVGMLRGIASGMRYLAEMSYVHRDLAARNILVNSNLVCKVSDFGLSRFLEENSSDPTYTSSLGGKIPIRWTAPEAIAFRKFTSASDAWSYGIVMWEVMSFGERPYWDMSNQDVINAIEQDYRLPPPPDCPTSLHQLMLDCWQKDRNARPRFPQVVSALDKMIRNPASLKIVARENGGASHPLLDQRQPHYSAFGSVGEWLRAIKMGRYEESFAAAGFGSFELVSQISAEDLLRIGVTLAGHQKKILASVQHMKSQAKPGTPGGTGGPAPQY
Kind of assay: Eph receptor kinase activity assay (radiometric), EphB4. To be noted: for remaining activity at 0.01 µM: 10 nM compound, read-out: EphB4 % act 10 nM; for remaining activity at 0.1 µM: 100 nM compound, read-out: EphB4 % act 100 nM; for remaining activity at 0.3 µM: 300 nM compound, read-out: EphB4 % act 300 nM.

A further assay concerns the target EphA4 (Homo sapiens, UniProt P54764). Kind of assay: Eph receptor kinase activity assay (radiometric), EphA4. The following applies: for remaining activity at 0.01 µM: 10 nM compound, read-out: EphA4 % act 10 nM; for remaining activity at 0.1 µM: 100 nM compound, read-out: EphA4 % act 100 nM; for remaining activity at 0.3 µM: 300 nM compound, read-out: EphA4 % act 300 nM.

The source of these data is US20240189289A1, “INHIBITORS OF EPHB3 SIGNALING” (The Brigham and Women`s Hospital, Inc., priority 2021, published 2024).

EphA2, sequence (P29317 24-976): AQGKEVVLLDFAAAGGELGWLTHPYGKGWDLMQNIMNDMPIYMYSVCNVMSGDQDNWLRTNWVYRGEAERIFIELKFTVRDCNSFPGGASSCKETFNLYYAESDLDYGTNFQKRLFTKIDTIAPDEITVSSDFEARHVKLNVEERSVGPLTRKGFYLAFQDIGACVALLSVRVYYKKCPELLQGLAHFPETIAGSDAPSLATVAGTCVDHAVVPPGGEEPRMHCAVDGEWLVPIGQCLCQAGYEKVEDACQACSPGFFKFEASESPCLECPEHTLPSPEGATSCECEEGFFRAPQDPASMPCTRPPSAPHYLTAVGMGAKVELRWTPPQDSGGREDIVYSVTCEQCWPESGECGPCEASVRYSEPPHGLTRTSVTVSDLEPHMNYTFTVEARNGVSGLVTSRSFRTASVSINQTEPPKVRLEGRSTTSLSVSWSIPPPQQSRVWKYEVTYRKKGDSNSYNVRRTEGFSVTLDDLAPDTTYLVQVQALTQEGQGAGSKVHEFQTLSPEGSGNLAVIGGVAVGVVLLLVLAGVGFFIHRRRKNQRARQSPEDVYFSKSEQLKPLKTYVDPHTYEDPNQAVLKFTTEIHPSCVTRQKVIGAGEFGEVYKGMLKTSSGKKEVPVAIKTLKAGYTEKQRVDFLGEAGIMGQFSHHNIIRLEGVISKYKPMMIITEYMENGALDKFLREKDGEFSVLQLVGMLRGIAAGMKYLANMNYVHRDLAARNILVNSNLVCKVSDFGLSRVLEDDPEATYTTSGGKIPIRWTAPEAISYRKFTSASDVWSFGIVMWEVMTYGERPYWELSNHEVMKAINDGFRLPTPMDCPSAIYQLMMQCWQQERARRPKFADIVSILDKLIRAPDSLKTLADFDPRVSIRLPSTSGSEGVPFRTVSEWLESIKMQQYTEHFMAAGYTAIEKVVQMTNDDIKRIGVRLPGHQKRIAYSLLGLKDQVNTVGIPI
EphA4, sequence (P54764 20-986): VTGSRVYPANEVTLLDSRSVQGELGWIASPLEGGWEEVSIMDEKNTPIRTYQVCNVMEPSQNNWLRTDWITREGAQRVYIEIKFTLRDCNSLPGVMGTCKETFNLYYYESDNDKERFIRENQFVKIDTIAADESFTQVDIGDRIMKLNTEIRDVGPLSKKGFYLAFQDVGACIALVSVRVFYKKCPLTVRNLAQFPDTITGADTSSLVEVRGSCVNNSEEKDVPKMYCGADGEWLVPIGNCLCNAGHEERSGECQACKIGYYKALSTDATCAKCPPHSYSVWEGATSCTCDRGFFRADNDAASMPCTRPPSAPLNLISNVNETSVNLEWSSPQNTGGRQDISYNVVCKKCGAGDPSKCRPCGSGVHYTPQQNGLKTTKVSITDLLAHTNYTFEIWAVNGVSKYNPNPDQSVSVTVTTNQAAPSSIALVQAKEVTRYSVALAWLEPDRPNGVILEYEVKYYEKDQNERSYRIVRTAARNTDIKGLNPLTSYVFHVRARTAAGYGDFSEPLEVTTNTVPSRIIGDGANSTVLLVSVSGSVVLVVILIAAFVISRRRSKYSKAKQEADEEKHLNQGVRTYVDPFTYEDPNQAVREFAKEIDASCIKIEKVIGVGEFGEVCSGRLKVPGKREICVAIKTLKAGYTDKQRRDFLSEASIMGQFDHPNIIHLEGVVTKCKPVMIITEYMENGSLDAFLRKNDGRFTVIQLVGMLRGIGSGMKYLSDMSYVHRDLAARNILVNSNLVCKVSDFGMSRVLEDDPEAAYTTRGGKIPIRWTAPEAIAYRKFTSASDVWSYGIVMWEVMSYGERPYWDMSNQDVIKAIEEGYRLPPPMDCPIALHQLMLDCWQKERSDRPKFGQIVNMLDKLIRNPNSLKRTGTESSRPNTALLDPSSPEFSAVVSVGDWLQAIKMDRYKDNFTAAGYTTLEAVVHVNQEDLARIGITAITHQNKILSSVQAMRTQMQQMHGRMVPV

`NCc1cccc(-c2ccc3ncc(C(=O)Nc4ccccc4Cl)n3c2)c1` [compound 108, 6-(3-(Aminomethyl)phenyl)-N-(2-chlorophenyl)imidazo[1,2-a]pyridine-3-carboxamide]: the remaining activity at 0.01 µM is 55% at EphA2, 46% at EphB3, 62% at EphB4 and 36% at EphA4. Also, the remaining activity at 0.1 µM at EphA2 was 25%; on EphB3 it was 7%; at EphB4 it was 12%; at EphA4, 12%. In addition, the remaining activity at 0.3 µM is 11% on EphA2, 4% on EphB3, 2% at EphB4 and 6% at EphA4.
With `NCc1ccc(-c2ccc3ncc(C(=O)Nc4ccccc4Cl)n3c2)cc1` [compound 109, 6-(4-(Aminomethyl)phenyl)-N-(2-chlorophenyl)imidazo[1,2-a]pyridine-3-carboxamide], the remaining activity at 0.01 µM was determined as 77% on EphA2, 22% at EphB3, 22% at EphB4 and 24% on EphA4. Also, the remaining activity at 0.1 µM on EphA2 worked out at 11%; on EphB3 it was 6%; at EphB4, 6%; on EphA4, 8%. Also, the remaining activity at 0.3 µM on EphA2 was 0%; on EphB3, 4%; at EphB4, 3%; at EphA4 it was 5%.
Consider `NC(=O)c1cccc(-c2ccc3ncc(C(=O)Nc4ccccc4Cl)n3c2)c1` [compound 110, 6-(3-Carbamoylphenyl)-N-(2-chlorophenyl)imidazo[1,2-a]pyridine-3-carboxamide], for which the remaining activity at 0.01 µM is 71% at EphA2, 58% on EphB3, 75% on EphB4 and 65% on EphA4. Besides, the remaining activity at 0.1 µM at EphA2 is 46%; on EphB3, 39%; on EphB4, 48%; at EphA4, 36%. The remaining activity at 0.3 µM at EphA2 was found to be 21%; on EphB3, 7%; on EphB4 it was 3%; on EphA4 it was 12%.
As to `O=C(Nc1ccccc1Cl)c1cnc2ccc(-c3ccccn3)cn12` [compound 112, N-(2-chlorophenyl)-6-(pyridin-2-yl)imidazo[1,2-a]pyridine-3-carboxamide], the remaining activity at 0.01 µM on EphA2 was found to be 53%; on EphB3, 50%; at EphB4, 37%; at EphA4, 50%. Moreover, the remaining activity at 0.1 µM on EphA2 was 33%; at EphB3 it was 14%; at EphB4, 7%; on EphA4, 25%. Moreover, the remaining activity at 0.3 µM at EphA2 turned out to be 14%; at EphB3, 7%; on EphB4 it was 2%; at EphA4, 12%.
In the case of `O=C(Nc1ccccc1Cl)c1cnc2ccc(-c3cccnc3)cn12` [compound 113, N-(2-Chlorophenyl)-6-(pyridin-3-yl)imidazo[1,2-a]pyridine-3-carboxamide], the remaining activity at 0.01 µM was 52% on EphA2, 49% at EphB3, 30% on EphB4 and 53% on EphA4. Also, the remaining activity at 0.1 µM at EphA2 is 29%; at EphB3, 16%; at EphB4, 7%; at EphA4, 26%. The remaining activity at 0.3 µM at EphA2 came to 17%; on EphB3, 11%; on EphB4, 4%; at EphA4 it was 19%.
`O=C(Nc1ccccc1Cl)c1cnc2ccc(-c3ccncc3)cn12` [compound 114, N-(2-Chlorophenyl)-6-(pyridin-4-yl)imidazo[1,2-a]pyridine-3-carboxamide]: the remaining activity at 0.01 µM is 51% on EphA2, 52% on EphB3, 39% at EphB4 and 49% at EphA4. For the same compound, the remaining activity at 0.1 µM on EphA2 is 32%; on EphB3, 13%; on EphB4, 4%; at EphA4, 21%. Moreover, the remaining activity at 0.3 µM on EphA2 is 14%; at EphB3 it was 5%; on EphB4, 4%; on EphA4, 10%.
For the compound `O=C(Nc1ccccc1Cl)c1cnc2ccc(-c3ncccn3)cn12` [compound 115, N-(2-Chlorophenyl)-6-(pyrimidin-2-yl)imidazo[1,2-a]pyridine-3-carboxamide], the remaining activity at 0.01 µM on EphA2 stood at 115%; at EphB3, 108%; at EphB4, 89%; on EphA4, 104%. The remaining activity at 0.1 µM was 67% at EphA2, 55% on EphB3, 32% at EphB4 and 54% at EphA4. The remaining activity at 0.3 µM was found to be 40% at EphA2, 28% on EphB3, 9% on EphB4 and 34% at EphA4.
